Laboratory results as given in patent US10202351B2, “Pyrazolyl derivatives as pest control agents” (BAYER ANIMAL HEALTH GMBH, priority 2015, dated 2019).

What was measured:
[1] = test system: Phaedon cochleariae; assay: Phaedon cochleariae spray test; format: in vivo; settings: larvae on Chinese cabbage leaf discs, after 7 days
Protocol: (§1) Solvent: 78.0 parts by weight of acetone • • 1.5 parts by weight of dimethylformamide Emulsifier: alkylaryl polyglycol ether […] To produce further test concentrations, the formulation is diluted with emulsifier-containing water. Discs of Chinese cabbage leaves (Brassica pekinensis) are sprayed with an active ingredient formulation of the desired concentration and, after drying, populated with larvae of the mustard beetle (Phaedon cochleariae).

[2] = test system: Tetranychus urticae; assay: Tetranychus urticae spray test, OP-resistant; format: in vivo; settings: all stages on bean leaf discs, after 6 days
Protocol: Solvent: 78.0 parts by weight of acetone • • 1.5 parts by weight of dimethylformamide Emulsifier: alkylaryl polyglycol ether […] To produce further test concentrations, the formulation is diluted with emulsifier-containing water. Discs of bean leaves (Phaseolus vulgaris) infested with all stages of the greenhouse red spider mite (Tetranychus urticae) are sprayed with an active ingredient formulation of the desired concentration.

[3] = logP determination by HPLC on reversed-phase column (EEC Directive 79/831 Annex V.A8); format: physicochemical
[4] = test system: Boophilus microplus; assay: Boophilus microplus injection test; format: in vivo; settings: after 7 days, laying of fertile eggs
Protocol: Solvent: dimethyl sulfoxide […] The animals are transferred into dishes and kept in a climate-controlled room. Efficacy is assessed after 7 days by laying of fertile eggs. Eggs which are not visibly fertile are stored in a climate-controlled cabinet until the larvae hatch after about 42 days.

[5] = test system: Ctenocephalides felis; assay: Ctenocephalides felis oral test; format: in vivo; settings: kill after 2 days
Excerpt: Solvent: dimethyl sulfoxide […] Dilution with citrated cattle blood gives the desired concentration. About 20 unfed adult cat fleas (Ctenocephalides felis) are placed into a chamber which is closed at the top and bottom with gauze. A metal cylinder whose bottom end is closed with parafilm is placed onto the chamber. The cylinder contains the blood/active ingredient formulation, which can be imbibed by the fleas through the parafilm membrane.

[6] = test system: Rhipicephalus sanguineus; assay: Rhipicephalus sanguineus in vitro contact test with adult brown dog ticks; format: in vivo; settings: after 48 h, dead or moribund ticks
Protocol: After the solvent has evaporated off, the tubes are populated with 5-10 adult dog ticks (Rhipicephalus sanguineus), sealed with a perforated plastic lid and incubated in a horizontal position in the dark at room temperature and ambient humidity. After 48 h, efficacy is determined. To this end, the ticks are knocked to the base of the tube and incubated on a hotplate at 45-50° C. for not more than 5 min. Ticks which remain motionless on the base or move in such an uncoordinated manner that they are unable to deliberately avoid the heat by climbing upwards are considered to be dead or moribund.

[7] = test system: Lucilia cuprina; assay: Lucilia cuprina test; format: in vivo; settings: L1 larvae, kill after 2 days
Protocol: (§2) Solvent: dimethyl sulfoxide
(§3) To produce a suitable preparation of active compound, 10 mg of active compound are mixed with 0.5 ml of dimethyl sulfoxide, and the concentrate is diluted with water to the desired concentration.
About 20 L1 larvae of the Australian sheep blowfly (Lucilia cuprina) are transferred into a test vessel containing minced horsemeat and the active compound formulation of the desired concentration.
After 2 days, the kill in % is determined. 100% means that all the larvae have been killed; 0% means that no larvae have been killed.

[8] = test system: Musca domestica; assay: Musca domestica test; format: in vivo; settings: adult houseflies, kill after 2 days
Protocol: as §2, §3
Vessels containing a sponge treated with sugar solution and the active ingredient formulation of the desired concentration are populated with 10 adult houseflies (Musca domestica)).
After 2 days, the kill in % is determined. 100% means that all of the flies have been killed; 0% means that none of the flies have been killed.

[9] = test system: Spodoptera frugiperda; assay: Spodoptera frugiperda spray test; format: in vivo; settings: caterpillars on maize leaf discs, after 7 days
Protocol: as §1, with “Leaf discs” for “Discs”, “maize (Zea mays)” for “Chinese cabbage leaves (Brassica pekinensis)”, “compound” for “ingredient”, “caterpillars” for “larvae”, “armyworm (Spodoptera frugiperda).” for “mustard beetle (Phaedon cochleariae).”

[10] = test system: Ctenocephalides felis; assay: Ctenocephalides felis in vitro contact test with adult cat fleas; format: in vivo; settings: application rate 5 μg/cm^2 (500 g/ha), after 48 h, dead or moribund fleas
Protocol: After the solvent has evaporated off, the tubes are populated with 5-10 adult cat fleas (Ctenocephalides felis), sealed with a perforated plastic lid and incubated in a horizontal position at room temperature and ambient humidity. After 48 h, efficacy is determined. To this end, the tubes are stood upright and the fleas are knocked to the base of the tube. Fleas which remain motionless at the base or move in an uncoordinated manner are considered to be dead or moribund.

[11] = Table 1, HPLC C18, acetonitrile/water with formic acid
[12] = application rate 100 ppm in citrated cattle blood
[13] = application rate 5 μg/cm^2 (500 g/ha)
[14] = application rate 1 μg/cm^2 (100 g/ha)

lgP [3, 11]	lgP ([3]; synthesis example)	SMILES	efficacy ([1]; application rate 500 g/ha) [%]	efficacy ([2]; application rate 100 g/ha) [%]	efficacy ([2]; application rate 500 g/ha) [%]	efficacy ([4]; application rate 20 μg/animal) [%]	efficacy [5, 12] [%]	efficacy [6, 13] [%]	efficacy ([7]; application rate 100 ppm) [%]	efficacy ([8]; application rate 100 ppm) [%]	efficacy ([9]; application rate 100 g/ha) [%]	efficacy ([9]; application rate 500 g/ha) [%]	efficacy ([1]; application rate 100 g/ha) [%]	efficacy [6, 14] [%]	efficacy [10] [%]	efficacy ([4]; application rate 4 μg/animal) [%]	efficacy ([5]; application rate 20 ppm in citrated cattle blood) [%]	efficacy ([7]; application rate 20 ppm) [%]	efficacy ([8]; application rate 20 ppm) [%]
lgP 5.07		Cc1cc(C(F)(C(F)(F)F)C(F)(F)F)cc(C)c1-n1cc(-c2ccc(F)c(NC(=O)c3ccc(F)cc3)c2)cn1 [Example 5]	100	100	100	100	90	80	100	80	100	100							
		Cc1cc(C(F)(C(F)(F)F)C(F)(F)F)cc(C(F)(F)F)c1-n1cc(-c2cccc(NC(=O)c3cocn3)c2F)cn1 [Example 77]				100	100		100	100	100		100	100					
		Cc1cnccc1C(=O)Nc1cc(-c2cnn(-c3c(C)cc(C(F)(C(F)(F)F)C(F)(F)F)cc3C(F)(F)F)c2)ccc1F [Example 54]		100		100	100		100	100	100		100		100				
		Cc1ncc(-c2cnn(-c3c(Cl)cc(C(F)(C(F)(F)F)C(F)(F)F)cc3Cl)c2)cc1NC(=O)c1ccc(F)cc1 [Example 17]		100							100		100		100	100	100	100	100
		Cc1cc(C(F)(C(F)(F)F)C(F)(F)F)cc(C(F)(F)F)c1-n1cc(-c2ccc(F)c(NC(=O)c3ccc(F)cc3)c2F)cn1 [Example 23]				100	100		100	80	100		100	100					
lgP 3.95		Cc1cc(C(F)(C(F)(F)F)C(F)(F)F)cc(C)c1-n1cc(-c2ccc(F)c(NC(=O)c3cncnc3)c2)cn1 [Example 15]				100	100		100	100	100		100		100				
		Cc1cc(C(F)(C(F)(F)F)C(F)(F)F)cc(C(F)(F)F)c1-n1cc(-c2ccc(F)c(NC(=O)c3ccc(C#N)cc3)c2)cn1 [Example 33]		90		100	100	80	100	90	100		100		100				
lgP 5.14		Cc1cc(C(F)(C(F)(F)F)C(F)(F)F)cc(C)c1-n1cc(-c2cnc(Cl)c(NC(=O)c3ccc(F)cc3)c2)cn1 [Example 11]		90		100	100	80	100	100	100		100						
		Cc1cc(C(F)(C(F)(F)F)C(F)(F)F)cc(C(F)(F)F)c1-n1cc(-c2ccc(F)c(NC(=O)C3CSC3)c2)cn1 [Example 66]		100		100	100	100	100	100	100		100						
		COc1cc(C(=O)Nc2cc(-c3cnn(-c4c(C)cc(C(F)(C(F)(F)F)C(F)(F)F)cc4C(F)(F)F)c3)cnc2Cl)ccc1F [Example 24]		100		100	100	100	100	100	100		100						
		Cc1cc(C(F)(C(F)(F)F)C(F)(F)F)cc(C(F)(F)F)c1-n1cc(-c2cc(NC(=O)c3cocn3)ccc2F)cn1 [Example 2-12]				100	95		90		100		100	100					
		Cc1cc(C(F)(C(F)(F)F)C(F)(F)F)cc(C(F)(F)F)c1-n1cc(-c2ccc(F)c(NC(=O)c3ccnc(F)c3)c2)cn1 [Example 51]		90		100	100		100	100	100		100		100				
lgP 5.04		Cc1cc(C(F)(C(F)(F)F)C(F)(F)F)cc(C)c1-n1cc(-c2ccc(F)c(NC(=O)c3ccncn3)c2)cn1 [Example 16]				100	100	80	95	100	100		100						
		O=C(Nc1ccc(F)c(-c2cnn(-c3c(Br)cc(C(F)(C(F)(F)F)C(F)(F)F)cc3C(F)(F)F)c2)c1)c1cocn1 [Example 2-14]				100	100	80	90	90	100		100		100				
		O=C(Nc1cc(-c2cnn(-c3c(Cl)cc(C(F)(C(F)(F)F)C(F)(F)F)cc3Cl)c2)cnc1F)c1ccncc1 [Example 19]		100		100	100		100	100	100		100		100				
		Cc1cc(C(F)(C(F)(F)F)C(F)(F)F)cc(C(F)(F)F)c1-n1cc(-c2ccc(F)c(NC(=O)c3ccncc3)c2F)cn1 [Example 25]		100		100	100		100	100	100		100		100				
lgP 5.57	5.57	Cc1cc(C(F)(C(F)(F)F)C(F)(F)F)cc(C)c1-n1cc(-c2ccc(Cl)c(NC(=O)c3ccc(F)cc3)c2)cn1 [Example 4, N-[2-chloro-5-[1-[2,6-dimethyl-4-[1,2,2,2-tetrafluoro-1-(trifluoromethyl)ethyl]phenyl]pyrazol-4-yl]phenyl]-4-fluorobenzamide]	100	100	90	100	100	100	100		100	100							
